From patent US6767903B1, “New7α, 17α-bis-alkylated testosterone derivatives and their use in long-term therapy of androgen-dependent diseases” (Schering AG, priority 1998, dated 2004)
pIC50: −log10 of the molar value. Where two headings read alike, the source gives them in different places.

System: human prostate cancer cell line LNCaP
Assay: Antiproliferation test with the human prostate cancer cell line (LNCaP)
Assay type: cell-based
Details: LNCaP cells; for pIC50: growth stimulated by 0.1 nM R1881, 7 days, MTT readout, read-out: Antiandrogeneity IC50 in the presence of 0.1 nM of R1881; for Androgeneity at 1 μM: test compound at 1 μM, growth stimulation by 0.1 nM of R1881 was set = 100%
Text: Antiproliferation Test with the Human Prostate Cancer Cell Line (LNCaP)
The human prostate cancer cell line LNCaP [American Type Culture Collection (ATCC)=Accession No.: CRL 1740; Horoszewicz et al., Cancer Research, 43 pp. 1809-18, 1983] was isolated from the lymph node metastasis of a prostate cancer patient. It expresses the androgen receptor and can be stimulated in growth by androgens. The androgen-mediated growth stimulation can be blocked by simultaneous administration of antiandrogens. The antiandrogenic active strength (IC50) of test compounds can be determined by dose-action correlations.
The cells are cultivated in RPMI 1640 medium with penicillin (10,000 units/l), streptomycin (100 mg/l), glutamine ([…]), 10% fetal calf serum and 0.1 nM of the synthetic androgen R1881 (Metribolone, Roussel).
Day 1: Sowing of the cells in a density of 5,000-6,000/100 μl/hole in 96-hole plates. Adding test compound (100 μl/hole doubly concentrated) to the culture medium with 0.2 nM of R1881 (yields 0.1 nM final concentration). Incubation of the cells for 72 or 96 hours at 37° C., 5% CO2, 90% relative atmospheric humidity. In the culture medium, the fetal calf serum is replaced by 5% activated carbon-treated (steroid-free) serum.
Day 3 or 4: Medium change: In each case in 50% of the medium, inclusive test compounds are replaced by fresh medium. Incubation of the cells for 96 or 72 hours at 37° C., 5% CO2, 90% relative atmospheric humity.
Day 7: Adding 25 μl of MTT solution per hole {MTT=(3[4,5-dimethylthiazol-2-yl]-2,5-diphenaltetrazolium bromide (thiazolyl blue}. Incubation is for 3 hours at 37° C., 5% CO2, 90% relative atmospheric humidity. After the removal of the supernatant, addition of 100 μl of DMSO per hole. Measurement of the optical density at […].
The antiandrogens OH-flutamide and casodex that are found in clinical practice were tested, as well as the compound EM-101 (N-butyl, N-methyl-11-(17′β-hydroxy-4′-androsten-3′-on-7′α-yl)undecanamide of WO 91/00732.

| SMILES | pIC50 (Homo sapiens, 168 h) | Androgeneity at 1 μM | pIC50 |
| --- | --- | --- | --- |
| CC(O)(CS(=O)(=O)c1ccc(F)cc1)C(=O)Nc1ccc(C#N)c(C(F)(F)F)c1 (stereo not shown) [Casodex] | 6.36 | 7% |  |
| CCCCN(C)C(=O)CCCCCCCCCC[C@@H]1CC2=CC(=O)CC[C@]2(C)[C@H]2CC[C@]3(C)[C@@H](O)CC[C@H]3[C@H]12 [EM-101, N-butyl, N-methyl-11-(17′β-hydroxy-4′-androsten-3′-on-7′α-yl)undecanamide] |  | 0% | 5.35 |
| CC12CCC(=O)C=C1CC(CCCCCCCCCC[S+]([O-])c1ccccc1)C1C2CCC2(C)C1CCC2(O)C(F)(F)C(F)(F)F (stereo not drawn) [Example 20, 17β-Hydroxy-17α-(1,1,2,2,2-pentafluoroethyl)-7α-[10-(phenylsulfinyl)decyl]androst-4-en-3-one] |  | 0% | 6.70 |
| C[C@]12CCC(=O)C=C1C[C@@H](CCCCCCCCCO)[C@@H]1[C@@H]2CC[C@@]2(C)[C@H]1CC[C@]2(C)O [Example 53, 17β-Hydroxy-7α-(9-hydroxynonyl)-17α-methylandrost-4-en-3-one] | 7.40 | 0% |  |
| CC(C)(O)C(=O)Nc1ccc([N+](=O)[O-])c(C(F)(F)F)c1 [OH-flutamide] |  | 144% | < 5.00 |
